Results published in US4146719A, “Piperazinyl derivatives of quinoline carboxylic acids” (priority 1977, dated 1979).
≈ marks a conversion by molar mass, not a printed value. Entries after “also recorded” stand apart in the source; their conditions may differ.

Key:
[1] = tested on: Sta. aureus ATCC 14775; assay: Antibacterial activity in vitro, M.I.C., agar dilution streak method; format: cell-based, Staphylococcus aureus; conditions: Staphylococcus aureus, ATCC14775; Gram +; read-out: M.I.C.
[2] = tested on: Streptococcus pyogenes IID 692; assay: as above; format: cell-based; conditions: Streptococcus pyogenes, IID692; Gram +; read-out: M.I.C.
[3] = tested on: Str. pyogenes S-8; assay: as above; format: cell-based, Streptococcus pyogenes; conditions: Streptococcus pyogenes, S8; Gram +; read-out: M.I.C.
[4] = tested on: Str. faecalis IID 682; assay: as above; format: cell-based; conditions: Enterococcus faecalis, IID682; Gram +
[5] = tested on: Corynebacterium pyogenes IID 548; assay: as above; format: cell-based; conditions: Corynebacterium pyogenes, IID548; Gram +
[6] = tested on: Escherichia coli NIHJ; assay: as above; format: cell-based; conditions: Escherichia coli; Gram -; read-out: M.I.C.
[7] = tested on: E. coli ATCC 10536; assay: as above; format: cell-based, Escherichia coli; conditions: Escherichia coli, ATCC10536; Gram -; read-out: M.I.C.
[8] = tested on: Proteus vulgaris IFO 3167; assay: as above; format: cell-based; conditions: Proteus vulgaris, IFO3167; Gram -; read-out: M.I.C.
[9] = tested on: Shigella sonnei IID 969; assay: as above; format: cell-based; conditions: Shigella sonnei, IID969; Gram -
[10] = tested on: Haemophilus influenzae IID 986; assay: as above; format: cell-based; conditions: Haemophilus influenzae, IID986; Gram -; read-out: M.I.C.
[11] = tested on: Neisseria perflava IID 856; assay: as above; format: cell-based; conditions: Neisseria perflava, IID856; Gram -; read-out: M.I.C.
[12] = tested on: Pseudomonas aeruginosa V-1; assay: as above; format: cell-based; conditions: Pseudomonas aeruginosa, V1; Gram -; read-out: M.I.C.
[13] = tested on: Ps. aeruginosa IID 1130; assay: as above; format: cell-based, Pseudomonas aeruginosa; conditions: Pseudomonas aeruginosa, IID1130; Gram -; read-out: M.I.C.
[14] = tested on: gram-positive and gram-negative bacteria including Pseudomonas aeruginosa; assay: Antibacterial spectrum in vitro (summary in words); format: cell-based
[15] = tested on: Escherichia coli NIHJ JC-2; assay: Influence of serum on antibacterial activity; format: cell-based
Protocol: (§1) Nutrient agar was heated and melted. […] The diameter of the inhibition zone was measured.

[16] = tested on: Escherichia coli NIHJ JC-2; assay: Influence of liver homogenate on antibacterial activity; format: cell-based
Protocol: as §1

[17] = Biliary excretion in rats after a single oral administration of 50 mg/kg; conditions: rat, in vivo, po, 50 mg/kg
[18] = Concentrations in urine of mice after a single oral administration; format: in vivo; conditions: mouse; for concentration at 3 h: 0-3 hours; for concentration at 3 h / concentration at 6 h / concentration at 24 h / concentration at 27 h: mean ±S.E., read-out: Urinary level; for concentration at 6 h: 3-6 hours; for concentration at 24 h: 6-24 hours; for concentration at 27 h: 24-27 hours
[19] = in vivo; conditions: rat, po, 50 mg/kg
Protocol: (§2) Nutrient agar was heated and melted. Escherichia coli NIHJ JC-2 was added to melted agar, and well mixed, and 5 ml of the mixture was placed in Petri dish. Penicylinders were placed on the solidified agar, and the cylinder was filled with serum sample. The plate was placed in the incubator of 37° C. for 20 hours. The diameter of the inhibition zone was measured.
(§3) The tissue homogenates were prepared with 1:4 homogenates in M/15 phosphate buffer (pH 7.5).

[20] = Concentrations in tissues after a single oral administration of 50 mg/kg in rats; conditions: rat; for Tissue level, liver (free concentration): 50 mg/kg oral, mean ± S.E.
Protocol: as §2, §3

Compound: CCn1cc(C(=O)O)c(=O)c2cc(F)c(N3CCNCC3)cc21 [Compound (II), 1-ethyl-6-fluoro-1,4-dihydro-7-(1-piperazinyl)-4-oxoquinoline-3-carboxylicacid]
- MIC [1]: 1.56 µg/mL (≈ 4.89 µM)
- MIC [2]: 3.13 µg/mL (≈ 9.8 µM)
- MIC [3]: 1.56 µg/mL (≈ 4.89 µM)
- MIC [4]: 3.13 µg/mL
- MIC [5]: 3.13 µg/mL
- MIC [6]: 0.1 µg/mL (≈ 0.313 µM)
- MIC [7]: 0.05 µg/mL (≈ 0.157 µM)
- MIC [8]: 0.05 µg/mL (≈ 0.157 µM)
- MIC [9]: 0.1 µg/mL (≈ 0.313 µM)
- MIC [10]: 0.05 µg/mL (≈ 0.157 µM)
- MIC [11]: 0.05 µg/mL (≈ 0.157 µM)
- MIC [12]: 0.39 µg/mL (≈ 1.22 µM)
- MIC [13]: 0.78 µg/mL (≈ 2.44 µM)
- antibacterial activity (in words) [14]: more active than nalidixic acid and pipemidic acid against both of gram-positive and gram-negative bacteria; also recorded: more active than gentamicin and carbenicillin against gram-negative bacteria including Pseudomonas aeruginosa; also recorded: inhibited even such bacteria those were not susceptible to nalidixic acid, pipemidic acid and carbenicillin
- antibacterial activity in presence of serum (in words) [15]: not decreased by serum
- antibacterial activity in presence of liver homogenate (in words) [16]: decreased by liver and kidney homogenate
- biliary levels and cumulative excretion (in words) [17]: more excellent than those of nalidixic acid and pipemidic acid
- concentration at 3 h [17]: 31000 ± 3500 ng/mL
- concentration at 6 h [17]: 26400 ± 3200 ng/mL
- concentration at 24 h [17]: 18900 ± 1600 ng/mL
- concentration at 27 h [17]: 6700 ± 900 ng/mL
- dose excreted at 3 h [17]: 0.6 ± 0.06%
- dose excreted at 6 h [17]: 1.02 ± 0.11%
- dose excreted at 24 h [17]: 2.43 ± 0.23%
- dose excreted at 27 h [17]: 2.5 ± 0.23%
- concentration at 3 h ([18]; 1.56 mg/kg oral): 530 ± 60 ng/mL
- concentration at 6 h ([18]; 1.56 mg/kg oral): 220 ± 40 ng/mL
- concentration at 24 h ([18]; 1.56 mg/kg oral): 40 ± 30 ng/mL
- concentration at 27 h ([18]; 1.56 mg/kg oral): 30 ± 20 ng/mL
- concentration at 3 h ([18]; 3.13 mg/kg oral): 1760 ± 190 ng/mL
- concentration at 6 h ([18]; 3.13 mg/kg oral): 1460 ± 230 ng/mL
- concentration at 24 h ([18]; 3.13 mg/kg oral): 270 ± 40 ng/mL
- concentration at 27 h ([18]; 3.13 mg/kg oral): 140 ± 10 ng/mL
- concentration at 3 h ([18]; 6.25 mg/kg oral): 3700 ± 260 ng/mL
- concentration at 6 h ([18]; 6.25 mg/kg oral): 2040 ± 130 ng/mL
- concentration at 24 h ([18]; 6.25 mg/kg oral): 3010 ± 170 ng/mL
- concentration at 27 h ([18]; 6.25 mg/kg oral): 380 ± 50 ng/mL
- concentration at 3 h ([18]; 12.5 mg/kg oral): 10300 ± 900 ng/mL
- concentration at 6 h ([18]; 12.5 mg/kg oral): 8300 ± 700 ng/mL
- concentration at 24 h ([18]; 12.5 mg/kg oral): 7400 ± 800 ng/mL
- concentration at 27 h ([18]; 12.5 mg/kg oral): 1200 ± 100 ng/mL
- concentration at 3 h ([18]; 25.0 mg/kg oral): 16200 ± 3300 ng/mL
- concentration at 6 h ([18]; 25.0 mg/kg oral): 20300 ± 1700 ng/mL
- concentration at 24 h ([18]; 25.0 mg/kg oral): 11700 ± 900 ng/mL
- concentration at 27 h ([18]; 25.0 mg/kg oral): 2500 ± 200 ng/mL
- concentration at 3 h ([18]; 50.0 mg/kg oral): 33100 ± 2800 ng/mL
- concentration at 6 h ([18]; 50.0 mg/kg oral): 27200 ± 3200 ng/mL
- concentration at 24 h ([18]; 50.0 mg/kg oral): 23100 ± 2000 ng/mL
- concentration at 27 h ([18]; 50.0 mg/kg oral): 7700 ± 1100 ng/mL
- Tmax ([18]; oral, read-out: time of concentrations peak in urine): 0 to 6 h
- concentration at 0.5 h [19]: 11100 ± 2100 ng/g
- concentration at 1 h [19]: 10300 ± 2000 ng/g
- concentration at 2 h [19]: 6500 ± 900 ng/g
- concentration at 4 h [19]: 3500 ± 900 ng/g
- concentration at 6 h [19]: 1400 ± 100 ng/g
- Tissue level, liver (free concentration) ([20]; 0.5 hrs.): 4.1 ± 0.9 µg/g
- Tissue level, liver (free concentration) ([20]; 1 hr.): 3.7 ± 0.6 µg/g
- Tissue level, liver (free concentration) ([20]; 2 hrs.): 2.5 ± 0.5 µg/g
- Tissue level, liver (free concentration) ([20]; 4 hrs.): 1.2 ± 0.2 µg/g
- Tissue level, liver (free concentration) ([20]; 6 hrs.): 0.7 ± 0.1 µg/g
- concentration at 0.5 h ([20]; liver, po, 50 mg/kg): 9000 ± 1900 ng/g
- concentration at 1 h ([20]; liver, po, 50 mg/kg): 7900 ± 1200 ng/g
- concentration at 2 h ([20]; liver, po, 50 mg/kg): 5400 ± 1000 ng/g
- concentration at 4 h ([20]; liver, po, 50 mg/kg): 2600 ± 400 ng/g
- concentration at 6 h ([20]; liver, po, 50 mg/kg): 1500 ± 200 ng/g
